From ChEMBL document CHEMBL5247622, “Structural optimization of Imidazo[1, 2-a]pyridine derivatives for the treatment of gastric cancer via STAT3 signaling pathway” (Eur J Med Chem, 2022) come the findings set out here.

Active and inactive are the calls of the source. No cut-off for these calls is given here.

For series [1], the target named is Signal transducer and activator of transcription 3 (Homo sapiens) (UniProt P40763). The series is described as follows: Inhibition of Flag-tagged STAT3 (unknown origin) dimerization transfected in HEK293T cells at 0.3 to 3 uM incubated for 24 hrs followed by IL-6 stimulation and measured after 1 hr by immunoprecipitation assay. Format: cell-based. Particulars: dose 0.3-3 µM, time 25.0 hrs.
Signal transducer and activator of transcription 3 (Homo sapiens), sequence (P40763 whole entry): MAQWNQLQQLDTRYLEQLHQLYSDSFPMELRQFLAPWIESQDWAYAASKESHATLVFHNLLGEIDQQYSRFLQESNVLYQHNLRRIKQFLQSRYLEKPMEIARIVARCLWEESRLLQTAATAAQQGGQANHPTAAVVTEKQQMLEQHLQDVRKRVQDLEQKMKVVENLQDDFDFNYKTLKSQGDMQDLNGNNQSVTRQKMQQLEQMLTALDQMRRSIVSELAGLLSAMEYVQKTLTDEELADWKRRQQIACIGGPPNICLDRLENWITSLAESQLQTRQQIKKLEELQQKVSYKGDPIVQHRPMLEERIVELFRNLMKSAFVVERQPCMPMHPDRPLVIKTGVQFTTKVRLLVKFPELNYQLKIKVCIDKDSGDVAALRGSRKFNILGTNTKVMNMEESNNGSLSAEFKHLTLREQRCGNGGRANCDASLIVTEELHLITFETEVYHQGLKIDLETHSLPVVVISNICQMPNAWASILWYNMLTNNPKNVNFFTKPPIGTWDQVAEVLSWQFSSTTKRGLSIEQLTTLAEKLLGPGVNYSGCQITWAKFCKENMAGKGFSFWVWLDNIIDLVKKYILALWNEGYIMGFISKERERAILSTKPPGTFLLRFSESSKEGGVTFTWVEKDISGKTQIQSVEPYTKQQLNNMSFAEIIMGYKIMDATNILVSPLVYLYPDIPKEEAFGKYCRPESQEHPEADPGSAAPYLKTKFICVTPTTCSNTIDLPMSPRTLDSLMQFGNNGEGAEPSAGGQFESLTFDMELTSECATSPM

For series [2] the target is unchanged. The series is described as follows: Inhibition of STAT3 in human AGS cells assessed as inhibition of total STAT3 protein level at 0.3 to 3 uM by western blot assay. The class given is cell-based. Particulars: dose 0.3-3 µM.
The target of series [3] is T1, Signal transducer and activator of transcription 1-alpha/beta (Homo sapiens) (UniProt P42224).
T1 sequence (whole entry): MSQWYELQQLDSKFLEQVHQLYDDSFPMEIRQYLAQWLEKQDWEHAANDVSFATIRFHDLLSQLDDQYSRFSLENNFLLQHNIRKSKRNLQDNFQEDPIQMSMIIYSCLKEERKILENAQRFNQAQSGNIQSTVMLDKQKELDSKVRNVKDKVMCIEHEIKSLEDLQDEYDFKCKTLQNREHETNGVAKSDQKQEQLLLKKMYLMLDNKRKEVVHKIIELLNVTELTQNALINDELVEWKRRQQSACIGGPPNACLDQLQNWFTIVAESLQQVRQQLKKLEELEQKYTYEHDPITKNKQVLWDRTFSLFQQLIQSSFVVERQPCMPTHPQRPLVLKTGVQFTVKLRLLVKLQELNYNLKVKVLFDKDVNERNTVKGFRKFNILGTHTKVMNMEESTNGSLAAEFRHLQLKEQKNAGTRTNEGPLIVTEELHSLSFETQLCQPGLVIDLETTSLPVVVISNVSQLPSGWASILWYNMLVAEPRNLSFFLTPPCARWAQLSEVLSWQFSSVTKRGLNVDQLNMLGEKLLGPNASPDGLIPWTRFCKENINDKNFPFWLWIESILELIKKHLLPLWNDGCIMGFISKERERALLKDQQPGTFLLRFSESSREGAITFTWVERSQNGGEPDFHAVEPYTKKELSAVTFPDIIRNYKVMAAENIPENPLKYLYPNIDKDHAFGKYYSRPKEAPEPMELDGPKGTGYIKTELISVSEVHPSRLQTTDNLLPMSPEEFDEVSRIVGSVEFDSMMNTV
Kind of series: Inhibition of STAT1 in human AGS cells assessed as inhibition of STAT1 phosphorylation level at Tyr701 at 0.3 to 3 uM by western blot assay. The class given is cell-based. Particulars: dose 0.3-3 µM.

Series [4] deals with AGS. The series is described as follows: Inhibition of cell migration in human AGS cells at 0.03 to 0.3 uM incubated for 48 hrs by wound healing assay based microscopic analysis. The class given is functional. The following applies: dose 0.03-0.3 µM.
The nature of series [5]: Toxicity in BALB/c mouse xenografted with human MGC-803 cells assessed as morphological change in kidney at 5 mg/kg,ip administrated for 21 consecutive days by hematoxylin and eosin staining method. Particulars: in vivo. Format: organism-based.
The target of series [6] is Signal transducer and activator of transcription 3 (Homo sapiens) (UniProt P40763). Kind of series: Inhibition of STAT3 in human AGS cells assessed as reduction of Mcl-1 protein expression level at 0.3 to 3 uM by western blot assay. Particulars: dose 0.3-3 µM. The class given is cell-based.
Series [7] has as its system AGS. The series is described as follows: Induction of apoptosis in human AGS cells assessed as viable cells at 3 uM incubated for 48 hrs by Annexin V-FITC/PI staining based flow cytometry method (reference value: 94.8 %). Format: functional. The following applies: read-out: Activity.
The subject of series [8] is AGS. Kind of series: Induction of apoptosis in human AGS cells assessed as necrotic cells at 0.3 uM incubated for 48 hrs by Annexin V-FITC/PI staining based flow cytometry method (reference value: 0.32 %). The class given is functional.
Series [9] deals with Signal transducer and activator of transcription 3 (Homo sapiens) (UniProt P40763). Kind of series: In vivo inhibition of STAT3 in BALB/c mouse xenografted with human MGC-803 cells assessed as reduction of STAT3 phosphorylation level at Tyr705 in tumor at 5 mg/kg,ip administrated for 21 consecutive days by immunohistochemistry analysis. Format: functional, organism-based.
The target is the same in series [10]. The series is described as follows: Inhibition of STAT3 in human AGS cells assessed as inhibition of STAT3 phosphorylation level at Tyr705 at 0.3 to 3 uM by western blot assay. The class given is cell-based. The following applies: dose 0.3-3 µM.
Series [11] has the same target. The series is described as follows: In vivo inhibition of STAT3 in BALB/c mouse xenografted with human MGC-803 cells assessed as reduction of Mcl-1 expression in tumor at 5 mg/kg,ip administrated for 21 consecutive days by immunohistochemistry analysis. The class given is functional, organism-based.
Series [12] is described as follows: Toxicity in BALB/c mouse xenografted with human MGC-803 cells assessed as body weight loss at 15 mg/kg,ip administrated for 21 consecutive days. The class given is organism-based. Particulars: in vivo.
A short description of series [13]: Toxicity in BALB/c mouse xenografted with human MGC-803 cells assessed as body weight loss at 5 mg/kg,ip administrated for 21 consecutive days. Format: organism-based. Particulars: in vivo.
Series [14] concerns MGC-803. Kind of series: Inhibition of cell migration in human MGC-803 cells at 0.03 to 0.3 uM incubated for 48 hrs by wound healing assay based microscopic analysis. Format: functional. Particulars: dose 0.03-0.3 µM.
For series [15], the target named is Signal transducer and activator of transcription 3 (Homo sapiens) (UniProt P40763). Kind of series: Inhibition of HA-tagged STAT3 (unknown origin) dimerization transfected in HEK293T cells at 0.3 to 3 uM incubated for 24 hrs followed by IL-6 stimulation and measured after 1 hr by immunoprecipitation assay. The class given is cell-based. Particulars: dose 0.3-3 µM, time 25.0 hrs.

Series [16] relates to MGC-803. The series is described as follows: Antitumor activity against human MGC-803 cells xenografted in BALB/c mouse assessed as tumor growth inhibition at 15 mg/kg,ip administrated for 21 consecutive days relative to control. The class given is functional. Particulars: read-out: TGI.
Series [17] addresses Signal transducer and activator of transcription 3 (Homo sapiens) (UniProt P40763). The series is described as follows: Inhibition of STAT3 in human AGS cells assessed as reduction of c-Myc protein expression level at 0.3 to 3 uM by western blot assay. Format: cell-based. Particulars: dose 0.3-3 µM.
Series [18] can be described thus: Toxicity in BALB/c mouse xenografted with human MGC-803 cells assessed as morphological change in heart at 15 mg/kg,ip administrated for 21 consecutive days by hematoxylin and eosin staining method. The class given is organism-based. Particulars: in vivo.
The nature of series [19]: Toxicity in BALB/c mouse xenografted with human MGC-803 cells assessed as morphological change in kidney at 15 mg/kg,ip administrated for 21 consecutive days by hematoxylin and eosin staining method. The class given is organism-based. The following applies: in vivo.
In series [20] the test system is MGC-803. Kind of series: Antiproliferative activity against human MGC-803 cells assessed as reduction in cell viability incubated for 72 hrs by CCK-8 assay. The class given is functional, cell-based. Particulars: MGC-803, 72 h.
Series [21] concerns MGC-803. Kind of series: Antitumor activity against human MGC-803 cells xenografted in BALB/c mouse assessed as reduction of Ki67 expression level in tumor at 15 mg/kg,ip administrated for 21 consecutive days by immunohistochemistry analysis. Format: functional, organism-based.
Series [22] is described as follows: Metabolic stability in human liver microsomes assessed as half life. The class given is ADME, Microsome.
Series [23] has as its system AGS. Kind of series: Induction of apoptosis in human AGS cells assessed as late apoptotic cells at 1 uM incubated for 48 hrs by Annexin V-FITC/PI staining based flow cytometry method (reference value: 2.46 %). Format: functional.

Regarding `Cc1cc(NC(=O)c2ccc([N+](=O)[O-])o2)ccc1-c1cnc2ccccn12`, the inhibition entry in [1], in series [4], in series [10], in series [14] and in series [15] was “Dose-Dependent Effect” throughout. Moreover, the inhibition result in [2] and in series [3] was “inactive” each time. In addition, the Activity entry in [5] is listed as “Non-Toxic”; in series [8], 0.62%; in series [12], “Non-Toxic”; in [13], “Non-Toxic”; in [18], “Non-Toxic”; in series [19], “Non-Toxic”. Further, the Activity in series [23] is reported as 2.67%. The inhibition result in series [6], in series [9], in series [11], in series [17] and in [21] was “Active” throughout. Besides, the viability at 3 µM in series [7] was 81.3%. For the same compound, the inhibition in vivo at 15 mg/kg in [16] amounted to 73.4%. The 50% inhibitory concentration (IC50) in series [20] stood at 900 nM. For the same compound, in series [22], the half-life was found to be 41.2 min.
